Structures can show the parent of a compound that is named as a salt. Where two headings read alike, the source gives them in different places.
How the values were obtained:
Cryptosporidium parvum = test: qRT-PCR assay of the growth of C. parvum in vitro in HCT-8 host cells (primary and secondary screening, EC50); assay type: cell-based; settings: Cryptosporidium parvum, HCT-8; for inhibition at 3.3 µM: secondary screening at 3.3 uM, read-out: % Inhibition (3.3 uM)
[1] = primary screening at 10 uM, read-out: Inhibition (%)
[2] = primary screening at 10 uM, treated vs control

Compound	inhibition at 10 µM (Cryptosporidium parvum; [1]) [%]	cytotoxicity at 41 h, 10 µM (in vitro; human) [%]	Hs18S ΔCT (HCT-8 host cells (Hs18S); human, 41 h, 10 μM)	Hs18S ΔCT (HCT-8 host cells (Hs18S); [2])	also measured
CN1CC(=O)NC1=N [CREATININE]	20.5	0.2	0.00		
CC(C)(O)CC[C@@H](O)[C@](C)(O)[C@H]1CC[C@@]2(O)C3=CC(=O)[C@@H]4C[C@@H](O)[C@@H](O)C[C@]4(C)[C@H]3CC[C@]12C [CRUSTECDYSONE]	39.8	-10.6		-0.15	
C[C@H]1COC2=C1C(=O)C(=O)c1c2ccc2c1CCCC2(C)C [CRYPTOTANSHINONE]	95.3			0.18	inhibition at 3.3 µM (Cryptosporidium parvum): -85%; cytotoxicity at 10 µM (in vitro): 11.9%
COc1cc(/C=C/C(=O)CC(=O)/C=C/c2ccc(O)c(OC)c2)ccc1O [CURCUMIN]	24.3	2.4		0.03	
NCCSSCCN [CYSTAMINE DIHYDROCHLORIDE]	5.08	-11.2	-0.15		
Nc1ccn([C@@H]2O[C@H](CO)[C@@H](O)[C@H]2O)c(=O)n1 [CYTIDINE]	36.7	-44.6	-0.53		
O=c1cccc2n1C[C@@H]1CNC[C@H]2C1 [CYTISINE]					inhibition at 10 µM (Cryptosporidium parvum): 16%; cytotoxicity at 10 µM (in vitro): -20%; Hs18S ΔCT (HCT-8 host cells (Hs18S)): -0.26
O=c1c(-c2ccc(O)cc2)coc2cc(O)ccc12 [DAIDZEIN]	39.2	0.7	0.01		
C=CC(C1=CC(=O)C(OC)=CC1=O)c1ccc(O)cc1 (centres unmarked) [DALBERGIONE, 4-METHOXY-4'-HYDROXY-]	30.3	6.1	0.09		
C=CC(C1=CC(=O)C=CC1=O)c1ccccc1 (centres unmarked) [DALBERGIONE]	32.8	20.4	0.33		
O=C1c2cccc(O)c2C(=O)c2c(O)cccc21 [DANTHRON]	23	-8.6		-0.12	
CC(=O)N(O)CCCCCNC(=O)CCC(=O)N(O)CCCCCNC(=O)CCC(=O)N(O)CCCCCN [DEFEROXAMINE MESYLATE]	-48.5	19.6	0.31		
CC(C)c1ccc2c(c1)CC[C@H]1[C@](C)(C(N)=O)CCC[C@]21C [DEHYDROABIETAMIDE]	8.3	-0.7	-0.01		
C[C@H](CCC(=O)O)[C@H]1CC[C@H]2[C@@H]3C(=O)C[C@@H]4CC(=O)CC[C@]4(C)[C@H]3CC(=O)[C@]12C [DEHYDROCHOLIC ACID]	-24.5	-4.2	-0.06		
COc1cc2c(cc1OC)-c1c(oc3c4c(ccc3c1=O)OC(C(C)C)C4)CO2 (centres unmarked) [DEHYDRODIHYDROROTENONE]	-21.6			0.06	cytotoxicity at 10 µM (in vitro): 4.4%
C[C@]12CC[C@H](O)CC1=CC[C@@H]1[C@@H]2CC[C@]2(C)C(=O)CC[C@@H]12 [DEHYDROEPIANDROSTERONE]	7.05			-0.03	cytotoxicity at 10 µM (in vitro): -1.9%
C=C(C)[C@H]1Cc2c(ccc3c(=O)c4c(oc23)COc2cc(OC)c(OC)cc2-4)O1 [DEHYDROROTENONE]	-38.5			-0.07	cytotoxicity at 10 µM (in vitro): -4.9%
COc1ccc2c(c1)OCc1c-2oc2cc(OC)ccc12 [DEHYDROVARIABILIN]	22	-33.6	-0.42		
Nc1ncnc2c1ncn2[C@H]1C[C@H](O)[C@@H](CO)O1 [DEOXYADENOSINE]	44.5	-27.3	-0.35		
C[C@H](CCC(=O)O)[C@H]1CC[C@H]2[C@@H]3CC[C@@H]4C[C@H](O)CC[C@]4(C)[C@H]3C[C@H](O)[C@]12C [DEOXYCHOLIC ACID]	-39.8	31.7	0.55		
COc1cc(OC)c2c(OC)c(-c3ccc4c(c3)OCO4)c(=O)oc2c1 [DERRUSNIN]	14.8			-0.10	cytotoxicity at 10 µM (in vitro): -7.3%
COc1cc(OC)c2c(=O)c(-c3ccc4c(c3)OCO4)coc2c1 [DERRUSTONE]	61.3	23.9	0.39		inhibition at 3.3 µM (Cryptosporidium parvum): -77%
C=CCSCC=C [DIALLYL SULFIDE]	19.6	-0.8	-0.01		

Compound	inhibition at 10 µM (Cryptosporidium parvum; [1]) [%]	cytotoxicity at 41 h, 10 µM (in vitro; human) [%]	Hs18S ΔCT (HCT-8 host cells (Hs18S); human, 41 h, 10 μM)	Hs18S ΔCT (HCT-8 host cells (Hs18S); [2])	also measured
COc1cc(C)c(C(=O)Oc2cc(C)c(C(=O)O)c(O)c2C)c(OC)c1C [DIFFRACTAIC ACID]	-3.8	46.7	0.91		
COc1cc(OC)c(-c2c(OC)cc(OC)cc2OC)c(OC)c1 [DIFUCOL HEXAMETHYL ETHER]	-10.9			0.08	cytotoxicity at 10 µM (in vitro): 5.1%
C[C@@H]1CC[C@@]2(OC1)O[C@H]1[C@@H](O)[C@H]3[C@@H]4CC[C@H]5C[C@@H](O[C@@H]6O[C@H](CO)[C@H](O[C@@H]7O[C@H](CO)[C@@H](O)[C@H](O[C@@H]8OC[C@@H](O)[C@H](O)[C@H]8O)[C@H]7O[C@@H]7O[C@H](CO)[C@H](O)[C@H](O[C@@H]8O[C@H](CO)[C@@H](O)[C@H](O)[C@H]8O)[C@H]7O)[C@H](O)[C@H]6O)[C@H](O)C[C@]5(C)[C@H]4CC[C@]3(C)[C@H]1[C@@H]2C [DIGITONIN]	-16.6			-0.12	cytotoxicity at 10 µM (in vitro): -8.8%
C[C@]12CC[C@H](O)C[C@H]1CC[C@@H]1[C@@H]2C[C@@H](O)[C@]2(C)[C@@H](C3=CC(=O)OC3)CC[C@]12O [DIGOXIGENIN]	95.6			0.33	inhibition at 3.3 µM (Cryptosporidium parvum): 69%; cytotoxicity at 10 µM (in vitro): 19.2%
Cc1c(O)c(O)cc2c1CC=C1[C@@]2(C)CC[C@@]2(C)[C@@H]3C[C@](C)(C(=O)O)CC[C@]3(C)CC[C@]12C [DIHYDROCELASTROL]	92.5			1.27	inhibition at 3.3 µM (Cryptosporidium parvum): -66%; cytotoxicity at 10 µM (in vitro): 58.7%
COC(=O)C[C@H]1C(C)(C)[C@@H](OC(C)=O)[C@@H]2CC3C4CC(=O)O[C@@H](c5ccoc5)[C@]4(C)CCC3[C@@]1(C)C2=O (some centres unmarked) [DIHYDROFISSINOLIDE]	4.5	5.3	0.08		
Nc1nc2c(c(=O)[nH]1)N=C(CNc1ccc(C(=O)N[C@@H](CCC(=O)O)C(=O)O)cc1)CN2 [DIHYDROFOLIC ACID]	-11.9	-28.7	-0.36		
CC(=O)O[C@@H]1C[C@H]2C(C)(C)C(=O)CC[C@]2(C)[C@H]2CC[C@@]3(C)[C@H](c4ccoc4)OC(=O)[C@H]4O[C@]43[C@@]21C [DIHYDROGEDUNIN]	33.3	-17.9	-0.24		
CCCCCC1C(=O)CCC1CC(=O)OC (centres unmarked) [DIHYDROJASMONIC ACID, METHYL ESTER]	-8.77	-4	-0.06		
COc1c(CC(=O)c2cc3c(cc2O)OC(C)(C)C(O)C3)ccc2c1C=CC(C)(C)O2 (centres unmarked) [DIHYDROMUNDULETONE]	4.35	-7.4	-0.10		
COc1cc2c(cc1OC)[C@@H]1C(=O)c3ccc4c(c3O[C@@H]1CO2)CC(C(C)C)O4 (some centres unmarked) [DIHYDROROTENONE]	10.4			0.76	cytotoxicity at 10 µM (in vitro): 40.9%
CN[C@@H]1[C@H](O[C@H]2[C@H](O[C@H]3[C@H](O)[C@@H](O)[C@H](NC(=N)N)[C@@H](O)[C@@H]3NC(=N)N)O[C@@H](C)[C@]2(O)CO)O[C@@H](CO)[C@H](O)[C@H]1O [DIHYDROSTREPTOMYCIN SULFATE]	18	3.4		0.05	
C[C@@H]1CC[C@@]2(OC1)O[C@H]1C[C@H]3[C@@H]4CC=C5C[C@@H](O)CC[C@]5(C)[C@H]4CC[C@]3(C)[C@H]1[C@@H]2C [DIOSGENIN]	14.7			0.32	cytotoxicity at 10 µM (in vitro): 19.7%
COc1ccc(-c2cc(=O)c3c(O)cc(O[C@@H]4O[C@H](CO[C@@H]5O[C@@H](C)[C@H](O)[C@@H](O)[C@H]5O)[C@@H](O)[C@H](O)[C@H]4O)cc3o2)cc1O [DIOSMIN]	13.8	-57.1	-0.65		
CC/C=C\C/C=C\C/C=C\C/C=C\C/C=C\C/C=C\CCC(=O)O [DOCONEXENT]	-24.5	-4	-0.06		
CCCCCCCCCCCCCCCCCCCCCCO [DOCOSANOL]	24.4	-30.5	-0.38		
COc1ccc([C@H]2COc3c(ccc(O)c3OC)C2)c(OC)c1O [DUARTIN (-)]	-26.9	-15.3	-0.20		
COc1ccc2c(c1OC)OC[C@@H](c1ccc(OC)c(OC)c1OC)C2 [DUARTIN, DIMETHYL ETHER]	-13.5	-16.4	-0.22		
O=c1oc2c(O)c(O)cc3c(=O)oc4c(O)c(O)cc1c4c23 [ELLAGIC ACID]	-14.6	-3.6	-0.05		
CCCCCCCCCCCC1=C(O)C(=O)C=C(O)C1=O [EMBELIN]	-5.38			0.13	cytotoxicity at 10 µM (in vitro): 8.8%
CC[C@H]1CN2CCc3cc(OC)c(OC)cc3[C@@H]2C[C@@H]1C[C@H]1NCCc2cc(OC)c(OC)cc21 [EMETINE DIHYDROCHLORIDE]	97.3			1.41	inhibition at 3.3 µM (Cryptosporidium parvum): 95%; cytotoxicity at 41 h, 10 µM (in vitro): 62.4%
Cc1cc(O)c2c(c1)C(=O)c1cc(O)cc(O)c1C2=O [EMODIN]	-18	-3	-0.04		
CC1(C)[C@@H](O)CC[C@]2(C)[C@H]3C(=O)C=C4[C@@H]5C[C@@](C)(C(=O)O)CC[C@]5(C)CC[C@@]4(C)[C@]3(C)CC[C@@H]12 [ENOXOLONE]	-8.81	-5.3	-0.07		

Reference: paper PMC6736568, “Discovery of Novel Anti-cryptosporidial Activities From Natural Products by in vitro High-Throughput Phenotypic Screening” (Frontiers in Microbiology, 2019)
